What was measured:
HL-60(TB) = assay: Growth inhibition of human HL-60(TB) cells incubated for 48 hrs by sulforhodamine B assay; type: functional, cell-based; details: HL-60, 48 h
MOLT-4 = assay: Growth inhibition of human MOLT4 cells incubated for 48 hrs by sulforhodamine B assay; type: functional, cell-based; details: MOLT-4, 48 h
UACC-257 = assay: Growth inhibition of human UACC257 cells assessed as cell growth at 1 uM incubated for 48 hrs by sulforhodamine B assay relative to control; type: functional; details: UACC-257, 48 h, read-out: Activity
RXF 393 = assay: Growth inhibition of human RXF393 cells assessed as cell growth at 1 uM incubated for 48 hrs by sulforhodamine B assay relative to control; type: functional; details: RXF 393, 48 h, read-out: Activity
NCI-H23 = assay: Growth inhibition of human NCI-H23 cells assessed as cell growth at 0.1 uM incubated for 48 hrs by sulforhodamine B assay relative to control; type: functional; details: NCI-H23, 48 h, read-out: Activity
SF-268 [1] = assay: Growth inhibition of human SF268 cells incubated for 48 hrs by sulforhodamine B assay; type: functional, cell-based; details: SF-268, 48 h
SK-OV-3 = assay: Growth inhibition of human SKOV3 cells assessed as cell growth at 1 uM incubated for 48 hrs by sulforhodamine B assay relative to control; type: functional; details: SK-OV-3, 48 h, read-out: Activity
SK-MEL-2 [2] = assay: Growth inhibition of human SK-MEL-2 cells incubated for 48 hrs by sulforhodamine B assay; type: functional, cell-based; details: SK-MEL-2, 48 h
SNB-19 = assay: Growth inhibition of human SNB19 cells assessed as cell growth at 100 uM incubated for 48 hrs by sulforhodamine B assay relative to control; type: functional; details: SNB-19, 48 h, read-out: Activity
Hs-578T [3] = assay: Growth inhibition of human Hs578T cells assessed as cell growth at 100 uM incubated for 48 hrs by sulforhodamine B assay relative to control; type: functional; details: read-out: Activity
Hs-578T [4] = assay: Growth inhibition of human Hs578T cells assessed as cell growth at 0.01 uM incubated for 48 hrs by sulforhodamine B assay relative to control; type: functional; details: read-out: Activity
SNB-75 = assay: Growth inhibition of human SNB75 cells assessed as cell growth at 0.01 uM incubated for 48 hrs by sulforhodamine B assay relative to control; type: functional; details: SNB-75, 48 h, read-out: Activity
OVCAR-8 = assay: Growth inhibition of human OVCAR8 cells assessed as cell growth at 1 uM incubated for 48 hrs by sulforhodamine B assay relative to control; type: functional; details: OVCAR-8, 48 h, read-out: Activity
NCI-H226 = assay: Growth inhibition of human NCI-H226 cells incubated for 48 hrs by sulforhodamine B assay; type: functional, cell-based; details: NCI-H226, 48 h
HT-29 = assay: Growth inhibition of human HT-29 cells incubated for 48 hrs by sulforhodamine B assay; type: functional, cell-based; details: HT-29, 48 h
SK-MEL-2 [5] = assay: Growth inhibition of human SK-MEL-2 cells assessed as cell growth at 10 uM incubated for 48 hrs by sulforhodamine B assay relative to control; type: functional; details: SK-MEL-2, 48 h, read-out: Activity
SF-268 [6] = assay: Growth inhibition of human SF268 cells assessed as cell growth at 1 uM incubated for 48 hrs by sulforhodamine B assay relative to control; type: functional; details: SF-268, 48 h, read-out: Activity
RPMI-8226 = assay: Growth inhibition of human RPMI8226 cells assessed as cell growth at 1 uM incubated for 48 hrs by sulforhodamine B assay relative to control; type: functional; details: RPMI-8226, 48 h, read-out: Activity
Hs-578T [7] = assay: Growth inhibition of human Hs578T cells incubated for 48 hrs by sulforhodamine B assay; type: functional, cell-based
U-251 = assay: Growth inhibition of human U251 cells assessed as cell growth at 0.01 uM incubated for 48 hrs by sulforhodamine B assay relative to control; type: functional; details: U-251, 48 h, read-out: Activity
A549 [8] = assay: Growth inhibition of human A549/ATCC cells assessed as cell growth at 0.1 uM incubated for 48 hrs by sulforhodamine B assay relative to control; type: functional; details: A549, 48 h, read-out: Activity
MDA-MB-435 = assay: Growth inhibition of human MDA-MB-435 cells incubated for 48 hrs by sulforhodamine B assay; type: functional, cell-based; details: MDA-MB-435, 48 h
COLO 205 = assay: Growth inhibition of human COLO205 cells assessed as cell growth at 0.01 uM incubated for 48 hrs by sulforhodamine B assay relative to control; type: functional; details: COLO 205, 48 h, read-out: Activity
A498 = assay: Growth inhibition of human A498 cells assessed as cell growth at 1 uM incubated for 48 hrs by sulforhodamine B assay relative to control; type: functional; details: A498, 48 h, read-out: Activity
CCRF-CEM = assay: Growth inhibition of human CCRF-CEM cells assessed as cell growth at 1 uM incubated for 48 hrs by sulforhodamine B assay relative to control; type: functional; details: read-out: Activity
A549 [9] = assay: Growth inhibition of human A549/ATCC cells assessed as cell growth at 100 uM incubated for 48 hrs by sulforhodamine B assay relative to control; type: functional; details: A549, 48 h, read-out: Activity
HOP-62 = assay: Growth inhibition of human HOP62 cells assessed as cell growth at 1 uM incubated for 48 hrs by sulforhodamine B assay relative to control; type: functional; details: HOP-62, 48 h, read-out: Activity
K562 = assay: Growth inhibition of human K562 cells assessed as cell growth at 0.1 uM incubated for 48 hrs by sulforhodamine B assay relative to control; type: functional; details: K562, 48 h, read-out: Activity
[10] = read-out: LC50 (the source's name)
[11] = read-out: pLC50 (the source's name) (converted)

SMILES: COc1cc(Cl)cc(-c2nn(-c3cccc(NC(=O)c4ccc(N5CCOCC5)c(C(F)(F)F)c4)c3)cc2-c2ccncc2)c1
- GI50 (HL-60(TB); read-out: GI50): 4.19 µM
- LC50 (HL-60(TB); read-out: LC50): > 100 µM
- TGI (HL-60(TB); read-out: TGI): 33.2 µM
- GI50 (HL-60(TB); read-out: pGI50 (converted)): 4.17 µM
- LC50 (HL-60(TB); read-out: pLC50 (converted)): > 100 µM
- TGI (HL-60(TB); read-out: pTGI (converted)): 33.1 µM
- GI50 (MOLT-4; read-out: GI50): 5.49 µM
- CC50 (MOLT-4; [10]): > 100 µM
- TGI (MOLT-4; read-out: TGI): > 100 µM
- GI50 (MOLT-4; read-out: pGI50 (converted)): 5.5 µM
- CC50 (MOLT-4; [11]): > 100 µM
- TGI (MOLT-4; read-out: pTGI (converted)): > 100 µM
- growth at 1 µM (UACC-257): 98%
- growth at 1 µM (RXF 393): 45%
- growth at 0.1 µM (NCI-H23): 90%
- GI50 (SF-268 [1]; read-out: GI50): > 100 µM
- CC50 (SF-268 [1]; [10]): > 100 µM
- TGI (SF-268 [1]; read-out: TGI): > 100 µM
- GI50 (SF-268 [1]; read-out: pGI50 (converted)): > 100 µM
- CC50 (SF-268 [1]; [11]): > 100 µM
- TGI (SF-268 [1]; read-out: pTGI (converted)): > 100 µM
- growth at 1 µM (SK-OV-3): 103%
- GI50 (SK-MEL-2 [2]; read-out: GI50): 2.11 µM
- CC50 (SK-MEL-2 [2]; [10]): > 100 µM
- TGI (SK-MEL-2 [2]; read-out: TGI): > 100 µM
- GI50 (SK-MEL-2 [2]; read-out: pGI50 (converted)): 26.3 µM
- CC50 (SK-MEL-2 [2]; [11]): > 100 µM
- TGI (SK-MEL-2 [2]; read-out: pTGI (converted)): > 100 µM
- growth at 100 µM (SNB-19): 60%
- growth at 100 µM (Hs-578T [3]): 42%
- growth at 0.01 µM (Hs-578T [4]): 92%
- growth at 0.01 µM (SNB-75): 58%
- growth at 1 µM (OVCAR-8): 56%
- GI50 (NCI-H226; read-out: GI50): 9.34 µM
- LC50 (NCI-H226; read-out: LC50): > 100 µM
- TGI (NCI-H226; read-out: TGI): > 100 µM
- GI50 (NCI-H226; read-out: pGI50 (converted)): 93.3 µM
- LC50 (NCI-H226; read-out: pLC50 (converted)): > 100 µM
- TGI (NCI-H226; read-out: pTGI (converted)): > 100 µM
- GI50 (HT-29; read-out: GI50): 4 µM
- CC50 (HT-29; [10]): > 100 µM
- TGI (HT-29; read-out: TGI): 38 µM
- GI50 (HT-29; read-out: pGI50 (converted)): 4.07 µM
- CC50 (HT-29; [11]): > 100 µM
- TGI (HT-29; read-out: pTGI (converted)): 38 µM
- growth at 10 µM (SK-MEL-2 [5]): 64.9%
- growth at 1 µM (SF-268 [6]): 93%
- growth at 1 µM (RPMI-8226): 59%
- GI50 (Hs-578T [7]; read-out: GI50): 5.48 µM
- CC50 (Hs-578T [7]; [10]): > 100 µM
- TGI (Hs-578T [7]; read-out: TGI): > 100 µM
- GI50 (Hs-578T [7]; read-out: pGI50 (converted)): 6.46 µM
- CC50 (Hs-578T [7]; [11]): > 100 µM
- TGI (Hs-578T [7]; read-out: pTGI (converted)): > 100 µM
- growth at 0.01 µM (U-251): 95%
- growth at 0.1 µM (A549 [8]): 102%
- GI50 (MDA-MB-435; read-out: GI50): 4.38 µM
- LC50 (MDA-MB-435; read-out: LC50): > 100 µM
- TGI (MDA-MB-435; read-out: TGI): > 100 µM
- GI50 (MDA-MB-435; read-out: pGI50 (converted)): 43.7 µM
- LC50 (MDA-MB-435; read-out: pLC50 (converted)): > 100 µM
- TGI (MDA-MB-435; read-out: pTGI (converted)): > 100 µM
- growth at 0.01 µM (COLO 205): 103%
- growth at 1 µM (A498): 55%
- growth at 1 µM (CCRF-CEM): 56%
- growth at 100 µM (A549 [9]): 25%
- growth at 1 µM (HOP-62): 107%
- growth at 0.1 µM (K562): 95%

Reference: ChEMBL document CHEMBL4308841, “Synthesis, in vitro antiproliferative activity, and kinase inhibitory effects of pyrazole-containing diarylureas and diarylamides” (Eur J Med Chem, 2018)
